From patent US9260455B2, “Alkyl-substituted hexahydropyrano[3,4-d][1,3]thiazin-2-amine compounds” (Pfizer Inc., priority 2012, dated 2016)
Like-named read-outs stand apart in the source and are kept apart here.

Key:
[1] = tested on: H4 human neuroglioma cells over-expressing the wild-type human APP695; assay: sAPPβ Whole-Cell Assay (in vitro sAPPb assay); format: cell-based; details: read-out: sAPPβ Whole-Cell Assay IC50
Protocol: Whole Cell Assay (In Vitro sAPPb Assay):
H4 human neuroglioma cells over-expressing the wild-type human APP695 are treated for 18 hours with compound in cell growth media having a final concentration 1% DMSO. sAPPβ levels are measured using TMB-ELISA with capture APP N-terminal antibody (Affinity BioReagents, OMA1-03132), wild-type sAPPβ specific reporter p192 (Elan), and tertiary anti rabbit-HRP (GE Healthcare).

BACE1 = BACE1 (Homo sapiens (Human), UniProt P56817); assay: BACE1 Cell-Free Assay; format: biochemical; details: fluorescence polarization; 0.1 nM BACE1, 150 nM peptide substrate, pH 4.5, 3 hours at 37° C.; geometric mean
BACE2 = BACE2 (Homo sapiens (Human), UniProt Q9Y5Z0); assay: BACE2 Cell-free Assay; format: biochemical; details: fluorescence polarization; 2.5 nM BACE2, 150 nM peptide substrate, pH 4.5, 3 hours at 37° C.; geometric mean
Protocol: BACE2 Assay: This assay measures the inhibition of the BACE2 enzyme as it cleaves a non-native peptide. […] The substrate is Biotin-[…](Oregon green)-KK-OH. The BACE2 enzyme is available from Enzo Life Sciences (Cat #BML-SE550). Compounds are incubated in a 1⁄2 log dose response curve from a top concentration of 100 μM with BACE2 enzyme and the biotinylated fluorescent peptide in 384-well black plates (Thermo Scientific #4318). […] Plates are covered and incubated for 3 hours at 37° C. The reaction is stopped with the addition of 30 μL of 1.5 μM Streptavidin (Pierce, #21125). After a 10 minute incubation at room temperature, plates are read on a PerkinElmer Envision for fluorescent polarization (Ex485 nm/Em530 nm). The activity of the beta-secretase enzyme is detected by changes in the fluorescence polarization that occur when the substrate is cleaved by the enzyme.

[2] = H4 cells, 18 hours with compound, sAPPβ by TMB-ELISA, geometric mean

Sequence of BACE2 (Q9Y5Z0 63-518): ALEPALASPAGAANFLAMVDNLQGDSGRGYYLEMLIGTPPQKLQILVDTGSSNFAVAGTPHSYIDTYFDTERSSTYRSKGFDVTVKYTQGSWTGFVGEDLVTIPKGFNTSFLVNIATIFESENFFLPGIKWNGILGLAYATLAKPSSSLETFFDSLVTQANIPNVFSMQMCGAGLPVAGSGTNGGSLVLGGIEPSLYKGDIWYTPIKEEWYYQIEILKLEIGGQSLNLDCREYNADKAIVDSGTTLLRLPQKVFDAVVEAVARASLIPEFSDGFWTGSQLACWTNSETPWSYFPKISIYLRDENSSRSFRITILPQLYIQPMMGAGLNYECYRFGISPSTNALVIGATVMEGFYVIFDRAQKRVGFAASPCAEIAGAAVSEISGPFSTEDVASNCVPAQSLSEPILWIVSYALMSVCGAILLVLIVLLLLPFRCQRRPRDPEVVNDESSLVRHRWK
Sequence of BACE1 (P56817 46-457): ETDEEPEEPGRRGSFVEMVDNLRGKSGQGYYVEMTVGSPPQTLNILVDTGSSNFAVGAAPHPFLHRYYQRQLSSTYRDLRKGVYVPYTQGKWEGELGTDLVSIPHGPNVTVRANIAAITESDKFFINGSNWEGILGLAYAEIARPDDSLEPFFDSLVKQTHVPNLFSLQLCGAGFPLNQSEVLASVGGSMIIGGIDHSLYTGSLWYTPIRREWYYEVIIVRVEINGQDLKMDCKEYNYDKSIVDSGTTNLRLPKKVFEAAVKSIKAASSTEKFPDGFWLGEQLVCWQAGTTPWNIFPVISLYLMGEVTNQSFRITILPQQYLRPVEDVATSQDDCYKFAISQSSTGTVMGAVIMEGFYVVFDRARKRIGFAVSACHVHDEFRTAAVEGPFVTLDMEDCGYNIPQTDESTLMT

| SMILES | IC50 [1, 2] [nM] | IC50 (BACE1) [nM] | IC50 (BACE2) [nM] | IC50 ([1]; 18 h) [nM] |
| --- | --- | --- | --- | --- |
| C[C@H]1SC(N)=N[C@@]2(c3ccc(F)cc3F)CO[C@@H](CF)C[C@@H]12 [Example 1, (4R,4aR,6R,8aS)-8a-(2,4-Difluorophenyl)-6-(fluoromethyl)-4-methyl-4,4a,5,6,8,8a-hexahydropyrano[3,4-d][1,3]thiazin-2-amine] | 61.4 | 805 | 1560 | – |
| CCOC[C@H]1C[C@H]2[C@@H](C)SC(N)=N[C@@]2(c2ccc(F)cc2F)CO1 [Example 5, (4R,4aR,6R,8aS)-8a-(2,4-Difluorophenyl)-6-(ethoxymethyl)-4-methyl-4,4a,5,6,8,8a-hexahydropyrano[3,4-d][1,3]thiazin-2-amine] | – | 613 | 274 | 39 |
| CC(C)OC[C@H]1C[C@H]2[C@@H](C)SC(N)=N[C@@]2(c2ccc(F)cc2F)CO1 [Example 6, (4R,4aR,6R,8aS)-8a-(2,4-Difluorophenyl)-4-methyl-6-[(propan-2-yloxy)methyl]-4,4a,5,6,8,8a-hexahydropyrano[3,4-d][1,3]thiazin-2-amine] | 42.9 | 718 | 5080 | – |
| NC1=N[C@@]2(c3ccc(F)cc3F)CO[C@@H](C(F)F)C[C@H]2CS1 [Example 4, (4aR,6R,8aS)-6-(Difluoromethyl)-8a-(2,4-difluorophenyl)-4,4a,5,6,8,8a-hexahydropyrano[3,4-d][1,3]thiazin-2-amine] | – | – | 2140 | – |

Continued, in another order:

| IC50 [1, 2] [nM] | IC50 (BACE1) [nM] | IC50 (BACE2) [nM] | SMILES | IC50 ([1]; 18 h) [nM] |
| --- | --- | --- | --- | --- |
| 20.6 | – | – | CC(C)C[C@H]1C[C@H]2CSC(N)=N[C@@]2(c2ccc(F)cc2F)CO1 [Example 7, (4aR,6S,8aS)-8a-(2,4-Difluorophenyl)-6-(2-methylpropyl)-4,4a,5,6,8,8a-hexahydropyrano[3,4-d][1,3]thiazin-2-amine] | – |
| 30 | – | 1630 | COC[C@H]1C[C@H]2CSC(N)=N[C@@]2(c2ccc(F)cc2F)CO1 [Example 8, (4aR,6R,8aS)-8a-(2,4-Difluorophenyl)-6-(methoxymethyl)-4,4a,5,6,8,8a-hexahydropyrano[3,4-d][1,3]thiazin-2-amine] | – |
| 37.2 | – | 1140 | C[C@H]1C[C@H]2CSC(N)=N[C@@]2(c2ccc(F)cc2F)CO1 [Example 3, (4aR,6S,8aS)-8a-(2,4-Difluorophenyl)-6-methyl-4,4a,5,6,8,8a-hexahydropyrano[3,4-d][1,3]thiazin-2-amine] | – |
| 31.9 | 737 | 2310 | COC[C@H]1C[C@H]2[C@@H](C)SC(N)=N[C@@]2(c2ccc(F)cc2F)CO1 [Example 2, (4R,4aR,6R,8aS)-8a-(2,4-Difluorophenyl)-6-(methoxymethyl)-4-methyl-4,4a,5,6,8,8a-hexahydropyrano[3,4-d][1,3]thiazin-2-amine] | – |
